“Also recorded” adds a separate entry of the source. Where two headings read alike, the source gives them in different places.

One experiment addresses T1, GABA-A α5 receptors (Rattus norvegicus, UniProt P18508+P19969).
T1 construct: host or cells: Wistar rats in vivo (valproic acid model)
As to conditions: Wistar rats prenatally exposed to valproic acid; cited from earlier work.

Experiment [1] addresses T2, GABA-A α5 (Homo sapiens, UniProt P18507+P31644).
T2 sequence (P31644 32-462): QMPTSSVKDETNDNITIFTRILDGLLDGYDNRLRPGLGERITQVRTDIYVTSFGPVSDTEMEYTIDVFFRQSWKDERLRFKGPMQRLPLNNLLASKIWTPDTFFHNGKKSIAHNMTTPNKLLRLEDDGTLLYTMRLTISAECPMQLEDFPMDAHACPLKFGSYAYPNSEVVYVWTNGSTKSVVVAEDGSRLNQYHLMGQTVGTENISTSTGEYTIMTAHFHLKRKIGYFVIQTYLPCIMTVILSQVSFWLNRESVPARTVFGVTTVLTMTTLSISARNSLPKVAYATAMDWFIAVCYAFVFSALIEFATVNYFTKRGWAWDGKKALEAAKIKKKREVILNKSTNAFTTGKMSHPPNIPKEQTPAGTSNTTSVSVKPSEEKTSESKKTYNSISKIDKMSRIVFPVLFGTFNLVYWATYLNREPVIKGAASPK
T2 sequence (P28472 26-473 partner): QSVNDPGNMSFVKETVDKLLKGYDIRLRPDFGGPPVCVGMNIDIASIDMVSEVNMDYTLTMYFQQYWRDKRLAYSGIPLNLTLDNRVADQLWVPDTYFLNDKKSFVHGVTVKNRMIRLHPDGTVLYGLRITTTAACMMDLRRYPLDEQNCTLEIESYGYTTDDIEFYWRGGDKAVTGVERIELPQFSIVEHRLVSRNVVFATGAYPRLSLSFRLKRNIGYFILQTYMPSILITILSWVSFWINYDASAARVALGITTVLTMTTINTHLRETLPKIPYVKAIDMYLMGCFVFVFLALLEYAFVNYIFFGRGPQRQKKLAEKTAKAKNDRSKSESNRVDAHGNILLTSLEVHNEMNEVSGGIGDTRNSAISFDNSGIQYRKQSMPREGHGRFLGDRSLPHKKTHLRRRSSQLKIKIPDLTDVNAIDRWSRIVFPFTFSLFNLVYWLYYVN
T2 sequence (P18507 40-467 limits assumed): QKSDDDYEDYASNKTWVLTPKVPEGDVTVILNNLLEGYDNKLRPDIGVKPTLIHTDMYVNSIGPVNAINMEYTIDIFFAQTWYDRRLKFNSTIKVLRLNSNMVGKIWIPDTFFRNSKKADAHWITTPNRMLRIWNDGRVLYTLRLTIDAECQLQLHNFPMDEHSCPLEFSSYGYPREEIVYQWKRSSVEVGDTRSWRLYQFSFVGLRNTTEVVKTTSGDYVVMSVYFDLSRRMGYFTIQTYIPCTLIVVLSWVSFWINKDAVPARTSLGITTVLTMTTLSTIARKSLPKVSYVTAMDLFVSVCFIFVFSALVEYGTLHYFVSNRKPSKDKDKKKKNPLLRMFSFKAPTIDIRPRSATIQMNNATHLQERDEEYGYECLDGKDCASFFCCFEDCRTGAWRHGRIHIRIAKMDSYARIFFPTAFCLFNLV
As to the kind of experiment: Resting state EEG, Phase 1 SAD/MAD study BP40091 (alogabat vs placebo). The experiment is classed as in vivo, human (adult healthy volunteers). On the set-up: endogenous in cells; host or cells: brain of adult healthy volunteers, in vivo (resting-state EEG). An excerpt: Extracting beta band oscillations. […] Here this approach is applied to isolate beta-band oscillations from EEG signals (FIGS. 4,5). This approach entails the estimation of the “background activity” in the frequency range of interest, which is non-oscillatory and/or composed of many oscillatory signals at different neighboring frequencies and therefore appears non-oscillatory. In a first implementation referred to as “locally referenced power”, the “background activity” for a given frequency range of interest (here beta frequency range defined as 16-32 Hz) is estimated by interpolation from power at lower and higher neighboring frequencies, referred to herein as “reference supports” (in this example, reference support points of 12 and 40 Hz are used). Note that in cases where a peak in the alpha band is expected (e.g. a peak around 10 Hz), reference support points that are closer to the beta frequency range on the lower end of the scale may be used, such as e.g. any point between 12 and 16 Hz). The estimated “background activity” is then “removed” (i.e. excluded, such as subtracted) from the power in the frequency range of interest or a power spectral density value at a specific frequency within this frequency range (e.g. the peak frequency, or a predetermined frequency, such as e.g. a frequency identified as the group level peak in a population, e.g. 23 Hz in the present case). The resulting estimate should thereby provide a more specific measure of the oscillatory physiological process under investigation (here GABAA-related beta-band oscillations).
More specifically, the “background power spectral density” at a given frequency may be derived by linear interpolation of logarithmically transformed power and frequencies (see FIG. 4B). The power signal in spectral analysis is typically log transformed by default. […] The “background power” is then estimated as the integral of this “background power spectral density” over the beta frequency range (here defined as 16-32 Hz). In other words, the “background signal” is the area under a straight line extending between the value of the spectrum at each of the support points (“background signal line”), between 16 and 32 Hz. The “locally referenced beta power” is then defined as the logarithm of the ratio between the beta power defined as the integral over the beta frequency range and the estimate of the “background power” (which is equivalent to the logarithm of the beta power defined as the integral over the beta frequency range, minus the logarithm of the estimate of the “background power”, or the area under the power curve in log scale, in the beta frequency range, minus the area under the background signal line in log scale, in the beta frequency range). Note that this metric will be negative when there is a deficit in the signal in this range compared to background.
In a third implementation, an approach using a global fit of the power spectrum composed of a superposition of oscillatory signals and a 1/f^α component was used to estimate the background signal. The 1/f^α component of the fit (estimated as described in Donoghue et al., 2020, see FIG. 4C—note that only step (a) of the method described in Donoghue et al. is used herein, where an aperiodic component is estimated, see FIG. 2a of Donoghue et al.) was used as the estimate of the background power spectral density. Analogously to the above, in a first embodiment of this third implementation, the extracted “1 over f referenced beta power” was used to estimate the background signal, and in a second embodiment the extracted “1 over f referenced beta peak power” was used to estimate the background signal. […]

For a further experiment, the system named is GABA-A receptors. As to conditions: Visser et al., 2003; cited from earlier work.
The target of experiment [2] is T2, GABA-A α5. Details: host or cells: brain of healthy volunteers (and individuals with Down syndrome), in vivo EEG. As to conditions: cited from earlier work.
Setting [3] is: selective doses 25-100 mg, parallel group, no pre-treatment baseline.

T1 sequence (P19969 32-464 limits assumed): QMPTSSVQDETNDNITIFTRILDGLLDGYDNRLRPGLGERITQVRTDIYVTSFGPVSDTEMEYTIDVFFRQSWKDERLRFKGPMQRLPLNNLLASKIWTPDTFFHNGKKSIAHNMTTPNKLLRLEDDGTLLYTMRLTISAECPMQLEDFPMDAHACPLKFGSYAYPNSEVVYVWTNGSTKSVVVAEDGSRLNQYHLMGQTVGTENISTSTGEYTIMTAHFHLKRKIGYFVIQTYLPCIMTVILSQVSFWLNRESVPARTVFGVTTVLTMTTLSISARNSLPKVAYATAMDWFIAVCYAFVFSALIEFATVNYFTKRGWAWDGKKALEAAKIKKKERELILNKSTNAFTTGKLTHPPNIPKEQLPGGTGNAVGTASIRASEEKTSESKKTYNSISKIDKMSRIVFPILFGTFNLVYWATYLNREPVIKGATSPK
T1 sequence (P63079 26-473 partner): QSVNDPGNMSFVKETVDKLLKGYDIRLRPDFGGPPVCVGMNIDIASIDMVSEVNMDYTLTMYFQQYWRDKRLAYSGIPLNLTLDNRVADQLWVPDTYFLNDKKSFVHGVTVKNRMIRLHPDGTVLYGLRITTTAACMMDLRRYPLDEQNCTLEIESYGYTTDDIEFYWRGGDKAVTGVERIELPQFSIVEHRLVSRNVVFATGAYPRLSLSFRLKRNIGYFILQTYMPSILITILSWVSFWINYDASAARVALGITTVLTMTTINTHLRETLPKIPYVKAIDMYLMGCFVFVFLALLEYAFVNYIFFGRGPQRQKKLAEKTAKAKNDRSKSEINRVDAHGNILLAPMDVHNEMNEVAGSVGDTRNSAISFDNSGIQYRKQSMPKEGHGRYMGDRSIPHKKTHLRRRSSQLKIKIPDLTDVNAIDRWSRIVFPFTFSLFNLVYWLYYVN
T1 sequence (P18508 39-466): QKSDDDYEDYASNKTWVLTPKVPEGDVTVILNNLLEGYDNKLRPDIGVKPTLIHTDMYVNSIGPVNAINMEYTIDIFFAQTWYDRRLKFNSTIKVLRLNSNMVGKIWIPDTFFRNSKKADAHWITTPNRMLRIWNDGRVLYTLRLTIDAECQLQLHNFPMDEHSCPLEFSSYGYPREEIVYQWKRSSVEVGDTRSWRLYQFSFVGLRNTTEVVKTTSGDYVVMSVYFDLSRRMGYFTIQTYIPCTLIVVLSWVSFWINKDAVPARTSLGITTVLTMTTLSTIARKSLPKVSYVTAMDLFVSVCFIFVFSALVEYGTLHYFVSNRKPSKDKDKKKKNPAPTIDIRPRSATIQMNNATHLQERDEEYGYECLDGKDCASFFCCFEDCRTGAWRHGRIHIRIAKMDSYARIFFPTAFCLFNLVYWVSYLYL

With `C#Cc1ccc2c(c1)C(c1ccccc1F)=N[C@H](C)c1c(C(=O)NC)ncn1-2` [MP-III-022], the “Impairments in social, repetitive and restrictive behavioural domains” value on GABA-A α5 receptors was “prevented impairments in many parameters”.

Consider `Cc1ccc(-c2noc(C)c2COc2ccc(C(=O)NC3CCOCC3)nn2)cn1` [alogabat], for which, at GABA-A α5 [1] (EEG beta-band power change from baseline across dose levels), the “Dose range that exhibits the full PD response (within GABA-A a5 receptor selective dose range)” value fell in the range of 25 to 100 mg. Besides, the “Effect size (ES) placebo vs treated group, locally referenced beta power” value on GABA-A α5 [1] (both variants (FIG. 4B interpolation, FIG. 4C 1/f fit), selective doses 25-100 mg, parallel group, no pre-treatment baseline, p<0.007) was ~0.7. Moreover, on GABA-A α5 [1] (change in power spectrum, 25-100 mg vs placebo, relative to pre-treatment baseline), the “Frequency specificity of the pharmacodynamic EEG effect” value was “specific to the beta-band”. For the same molecule, the “Change from baseline in EEG beta-band power (12-30 Hz)” value on GABA-A α5 [1] (relative to pre-dose baseline, compared to placebo, about 180 min after dosing) was “increases EEG beta-band power; also recorded: strong and consistent increase in beta-band power”. At GABA-A α5 [1] (setting [3]), the “Effect size (ES) placebo vs treated group, relative beta power” value is 0.62; the “Separation of placebo and treated group by absolute beta power” value was “not able to discriminate between the alogabat and the placebo group; also recorded: does not allow separating groups”.

On to `CCc1c(C(=O)OC)ncc2[nH]c3cc(OC)c(OC)cc3c12` [DMCM], for which the “EEG beta-band power, non-selective GABA-A NAMs” value in the experiment on GABA-A receptors was “decrease beta-band power”.

Turning to `CN1Cc2c(C(=O)OC(C)(C)C)ncn2-c2ccsc2C1=O` [Ro 19-4603], in the experiment with GABA-A receptors, the “EEG beta-band power, non-selective GABA-A NAMs” value was “decrease beta-band power”.

`Cc1onc(-c2ccc(F)cc2)c1COc1ccc(C(=O)N2CCS(=O)(=O)CC2)cn1` [basmisanil]: the EEG beta-band power entry at GABA-A α5 [2] (healthy volunteers and individuals with down-syndrome, Goeldner et al., 2022, Hipp et al., 2021) is given as “decrease in beta-band power”; at GABA-A α5 [2] (healthy volunteers, Hipp et al., 2021, FIG. 6), “decrease EEG beta-band power”.

The values are drawn from US20260033761A1, “CHARACTERISATION OF NEUROLOGICAL DYSFUNCTION” (Hoffmann-La Roche Inc., priority 2022, published 2026).
